Here are results for 1 molecule from US20040253308A1, “Surface-treated modafinil particles” (Barr Laboratories, Inc., priority 2003, published 2004).

SMILES strings stand for the structures.

One data set deals with mice. As to conditions: single administration (Duteil et al.); cited from earlier work.
Another data set concerns monkeys. The following applies: single administration (Duteil et al.); cited from earlier work.
A short description of data set [1]: Particle size determination (Hiac/Royco system). As to conditions: production lot used for FIG. 1 tablets. Type of data set: physicochemical. The protocol: Particle size can be determined by various methods known to those in the art, such as, but not limited to, laser particle size detectors. Particle size, as defined herein, is determined using a Hiac/Royco system, which includes the Model 9064 particle counter and the Model 3000A liquid syringe sampler (11801 Tech Road, Silver Spring, Md. 20904, U.S.A.).
Particle size was determined using a Hiac/Royco system, which includes the Model 9064 particle counter and the Model 3000A liquid syringe sampler (11801 Tech Road, Silver Spring, Md. 20904, U.S.A.). Samples were prepared in water saturated with modafinil. For each sample preparation, five consecutive readings were measured. The test was done in triplicate and the average was reported.

As for `NC(=O)C[S+]([O-])C(c1ccccc1)c1ccccc1` (stereo not shown) [modafinil, 2-(benzhydrylsulfinyl)acetamide], in the data set on mice, the locomotor activity result was “increased locomotor activity”. For the same molecule, the nocturnal activity entry in the data set with monkeys is “increased nocturnal activity”. Also, the median particle size in data set [1] (pretreated modafinil particles) is given as 148 μm. In data set [1], the “diameter exceeded by 5% of the total of pretreated modafinil particles” value is 277 μm.
